Common to all, as to format: binding
Assay [1] deals with T1, ADAAD (Active DNA-dependent ATPase A domain) (Bos taurus, UniProt Q9TTA5, H814A).
T1 construct: gene SMARCAL1; ATPase domain fragment of bovine SMARCAL1 (RecA-like domains 1 and 2), plasmid pCP101 (pET-14b, NdeI/XhoI), E. coli BL21(DE3), Ni-NTA then DEAE-sepharose; tag removal not mentioned
Put plainly: intrinsic tryptophan fluorescence titration (ex […] nm, em […] nm), one-site fit.

In assay [2] the target is T2, ADAAD (Active DNA-dependent ATPase A domain) (Bos taurus, UniProt Q9TTA5, F727A).
T2 construct: gene SMARCAL1; ATPase domain fragment of bovine SMARCAL1 (RecA-like domains 1 and 2), plasmid pCP101 (pET-14b, NdeI/XhoI), E. coli BL21(DE3), Ni-NTA then DEAE-sepharose; tag removal not mentioned
The assay is described as above.

Assay [3] concerns the target T3, ADAAD (Active DNA-dependent ATPase A domain) (Bos taurus, UniProt Q9TTA5, D811H).
T3 construct: gene SMARCAL1; ATPase domain fragment of bovine SMARCAL1 (RecA-like domains 1 and 2), plasmid pCP101 (pET-14b, NdeI/XhoI), E. coli BL21(DE3), Ni-NTA then DEAE-sepharose; tag removal not mentioned
Described as above.

The target in assay [4] is T4, ADAAD (Active DNA-dependent ATPase A domain) (Bos taurus, UniProt Q9TTA5).
T4 construct: gene SMARCAL1; ATPase domain fragment of bovine SMARCAL1 (RecA-like domains 1 and 2), plasmid pCP101 (pET-14b, NdeI/XhoI), E. coli BL21(DE3), Ni-NTA then DEAE-sepharose; tag removal not mentioned
Put plainly: intrinsic tryptophan fluorescence titration (ex […] nm, em […] nm). The settings on record: representative spectra only.

Assay [5] has as its target T5, ADAAD (Active DNA-dependent ATPase A domain) (Bos taurus, UniProt Q9TTA5, S778A).
T5 construct: gene SMARCAL1; ATPase domain fragment of bovine SMARCAL1 (RecA-like domains 1 and 2), plasmid pCP101 (pET-14b, NdeI/XhoI), E. coli BL21(DE3), Ni-NTA then DEAE-sepharose; tag removal not mentioned
Put plainly: intrinsic tryptophan fluorescence titration (ex […] nm, em […] nm), one-site fit.

In assay [6] the target is T6, ADAAD (Active DNA-dependent ATPase A domain) (Bos taurus, UniProt Q9TTA5, R815H).
T6 construct: gene SMARCAL1; ATPase domain fragment of bovine SMARCAL1 (RecA-like domains 1 and 2), plasmid pCP101 (pET-14b, NdeI/XhoI), E. coli BL21(DE3), Ni-NTA then DEAE-sepharose; tag removal not mentioned
Described as above.

The target in assay [7] is T7, ADAAD (Active DNA-dependent ATPase A domain) (Bos taurus, UniProt Q9TTA5, F727W).
T7 construct: gene SMARCAL1; ATPase domain fragment of bovine SMARCAL1 (RecA-like domains 1 and 2), plasmid pCP101 (pET-14b, NdeI/XhoI), E. coli BL21(DE3), Ni-NTA then DEAE-sepharose; tag removal not mentioned
Described as above.

Assay [8] addresses T8, ADAAD (Active DNA-dependent ATPase A domain) (Bos taurus, UniProt Q9TTA5, T780A).
T8 construct: gene SMARCAL1; ATPase domain fragment of bovine SMARCAL1 (RecA-like domains 1 and 2), plasmid pCP101 (pET-14b, NdeI/XhoI), E. coli BL21(DE3), Ni-NTA then DEAE-sepharose; tag removal not mentioned
The assay is described as above.

Assay [9] deals with T9, ADAAD (Active DNA-dependent ATPase A domain) (Bos taurus, UniProt Q9TTA5, R812A).
T9 construct: gene SMARCAL1; ATPase domain fragment of bovine SMARCAL1 (RecA-like domains 1 and 2), plasmid pCP101 (pET-14b, NdeI/XhoI), E. coli BL21(DE3), Ni-NTA then DEAE-sepharose; tag removal not mentioned
The description is as above.

Assay [10] addresses T10, ADAAD (Active DNA-dependent ATPase A domain) (Bos taurus, UniProt Q9TTA5, F727A/R812A).
T10 construct: gene SMARCAL1; ATPase domain fragment of bovine SMARCAL1 (RecA-like domains 1 and 2), plasmid pCP101 (pET-14b, NdeI/XhoI), E. coli BL21(DE3), Ni-NTA then DEAE-sepharose; tag removal not mentioned
Described as above.

Assay [11] deals with T11, ADAAD (Active DNA-dependent ATPase A domain) (Bos taurus, UniProt Q9TTA5, R815K).
T11 construct: gene SMARCAL1; ATPase domain fragment of bovine SMARCAL1 (RecA-like domains 1 and 2), plasmid pCP101 (pET-14b, NdeI/XhoI), E. coli BL21(DE3), Ni-NTA then DEAE-sepharose; tag removal not mentioned
The description is as above.

Assay [12] addresses T12, ADAAD (Active DNA-dependent ATPase A domain) (Bos taurus, UniProt Q9TTA5, D811H/H549D).
T12 construct: gene SMARCAL1; ATPase domain fragment of bovine SMARCAL1 (RecA-like domains 1 and 2), plasmid pCP101 (pET-14b, NdeI/XhoI), E. coli BL21(DE3), Ni-NTA then DEAE-sepharose; tag removal not mentioned
The description is as above.

In assay [13] the target is T13, ADAAD (Active DNA-dependent ATPase A domain) (Bos taurus, UniProt Q9TTA5, R815A).
T13 construct: gene SMARCAL1; ATPase domain fragment of bovine SMARCAL1 (RecA-like domains 1 and 2), plasmid pCP101 (pET-14b, NdeI/XhoI), E. coli BL21(DE3), Ni-NTA then DEAE-sepharose; tag removal not mentioned
Described as above.

The text below walks through data of PMC6019379, “RecA-like domain 2 of DNA-dependent ATPase A domain, a SWI2/SNF2 protein, mediates conformational integrity and ATP hydrolysis” (Bioscience Reports, 2018).

T3 sequence (Q9TTA5 221-940 D811H limits assumed): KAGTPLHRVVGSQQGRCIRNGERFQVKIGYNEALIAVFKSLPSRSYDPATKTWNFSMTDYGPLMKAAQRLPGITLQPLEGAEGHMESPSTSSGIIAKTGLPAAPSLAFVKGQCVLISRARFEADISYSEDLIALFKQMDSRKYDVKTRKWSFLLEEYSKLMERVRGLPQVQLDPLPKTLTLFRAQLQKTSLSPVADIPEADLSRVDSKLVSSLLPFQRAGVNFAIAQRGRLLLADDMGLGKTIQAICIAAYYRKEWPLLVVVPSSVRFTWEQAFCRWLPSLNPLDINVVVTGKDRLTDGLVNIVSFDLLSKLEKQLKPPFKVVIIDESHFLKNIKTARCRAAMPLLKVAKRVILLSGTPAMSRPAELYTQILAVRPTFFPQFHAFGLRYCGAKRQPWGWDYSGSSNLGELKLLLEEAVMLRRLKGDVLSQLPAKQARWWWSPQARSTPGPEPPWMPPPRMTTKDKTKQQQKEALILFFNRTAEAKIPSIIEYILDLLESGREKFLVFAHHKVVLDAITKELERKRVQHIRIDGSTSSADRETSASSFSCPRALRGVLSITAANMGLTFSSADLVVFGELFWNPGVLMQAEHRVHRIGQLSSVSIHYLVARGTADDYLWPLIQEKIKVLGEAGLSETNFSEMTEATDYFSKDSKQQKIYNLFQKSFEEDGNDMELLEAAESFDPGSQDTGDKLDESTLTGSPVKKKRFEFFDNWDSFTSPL
T6 sequence (Q9TTA5 221-940 R815H limits assumed): as the sequence (Q9TTA5 221-940 D811H limits assumed) above, with H591D, R595H counted along it
T10 sequence (Q9TTA5 221-940 F727A/R812A limits assumed): as the sequence (Q9TTA5 221-940 D811H limits assumed) above, with F507A, H591D, R592A counted along it
T2 sequence (Q9TTA5 221-940 F727A limits assumed): as the sequence (Q9TTA5 221-940 D811H limits assumed) above, with F507A, H591D counted along it
T11 sequence (Q9TTA5 221-940 R815K limits assumed): as the sequence (Q9TTA5 221-940 D811H limits assumed) above, with H591D, R595K counted along it
T8 sequence (Q9TTA5 221-940 T780A limits assumed): as the sequence (Q9TTA5 221-940 D811H limits assumed) above, with T560A, H591D counted along it
T9 sequence (Q9TTA5 221-940 R812A limits assumed): as the sequence (Q9TTA5 221-940 D811H limits assumed) above, with H591D, R592A counted along it
T5 sequence (Q9TTA5 221-940 S778A limits assumed): as the sequence (Q9TTA5 221-940 D811H limits assumed) above, with S558A, H591D counted along it
T7 sequence (Q9TTA5 221-940 F727W limits assumed): as the sequence (Q9TTA5 221-940 D811H limits assumed) above, with F507W, H591D counted along it
T1 sequence (Q9TTA5 221-940 H814A limits assumed): as the sequence (Q9TTA5 221-940 D811H limits assumed) above, with H591D, H594A counted along it
T13 sequence (Q9TTA5 221-940 R815A limits assumed): as the sequence (Q9TTA5 221-940 D811H limits assumed) above, with H591D, R595A counted along it
T12 sequence (Q9TTA5 221-940 H549D/D811H limits assumed): as the sequence (Q9TTA5 221-940 D811H limits assumed) above, with H329D counted along it
T4 sequence (Q9TTA5 221-940 limits assumed): as the sequence (Q9TTA5 221-940 D811H limits assumed) above, with H591D counted along it

Regarding `Nc1ncnc2c1ncn2[C@@H]1O[C@H](COP(=O)(O)OP(=O)(O)OP(=O)(O)O)[C@@H](O)[C@H]1O` [ATP], the Kd in assay [1] turned out to be 1.6 µM; in assay [2], 1.6 µM; in assay [3], 3.2 µM; in [5], 1.9 µM; in assay [6], 1.3 µM; in assay [7] it was 1 µM. The dissociation constant Kd in assay [8] was 1 µM; in [9], 1.6 µM; in assay [10], 1.7 µM; in assay [11], 1.2 µM; in assay [12], 2.8 µM; in assay [13], 1.2 µM. For the same molecule, in assay [4], the “intrinsic tryptophan fluorescence titration (ex 295 nm, em 340 nm)” value was “Representative fluorescence spectra of ADAAD titrated with (A). ATP; (B) DNA”.
